Reference: PMC10847043, “Engineered probiotic overcomes pathogen defences using signal interference and antibiotic production to treat infection in mice” (Nature Microbiology, 2024)

Test system: GAS
Assay: time-dependent killing (bactericidal) assay
Assay type: cell-based, Streptococcus pyogenes
Settings: 10× MIC; exponential phase GAS
Description: GAS grown to exponential phase was diluted to 10^5 CFUs ml^−1. […] A 100-µl aliquot was collected at each timepoint, cells were centrifuged and pellets were resuspended in 100 µl phosphate-buffered saline (PBS). Cells were serially diluted and plated on blood agar plates. After overnight incubation at 37 °C, CFUs were enumerated and reported as CFUs ml^−1. […] Bactericidal assays were performed in biological triplicate.

CC1(C)S[C@@H]2[C@H](NC(=O)Cc3ccccc3)C(=O)N2[C@H]1C(=O)O [penicillin G]
killing of GAS, in words: complete killing
